Measurements taken from ChEMBL document CHEMBL5303765, “Data for DCP probe BAY-7081” (2023).
Activity calls are given as the source filed them. The rule behind the calls is not given here.

Legend:
[1] = molecular target: High affinity cGMP-specific 3',5'-cyclic phosphodiesterase 9A (Mus musculus, UniProt O70628); experiment: Cellular PDE9A assay; type: functional
[2] = molecular target: Serine/threonine-protein kinase B-raf (Homo sapiens) (UniProt P15056); experiment: BRAF SGC Tm panel (DSF); settings: for ΔTm: Compound concentration 10.0 uM
Sequence of Serine/threonine-protein kinase B-raf (Homo sapiens) (P15056 whole entry): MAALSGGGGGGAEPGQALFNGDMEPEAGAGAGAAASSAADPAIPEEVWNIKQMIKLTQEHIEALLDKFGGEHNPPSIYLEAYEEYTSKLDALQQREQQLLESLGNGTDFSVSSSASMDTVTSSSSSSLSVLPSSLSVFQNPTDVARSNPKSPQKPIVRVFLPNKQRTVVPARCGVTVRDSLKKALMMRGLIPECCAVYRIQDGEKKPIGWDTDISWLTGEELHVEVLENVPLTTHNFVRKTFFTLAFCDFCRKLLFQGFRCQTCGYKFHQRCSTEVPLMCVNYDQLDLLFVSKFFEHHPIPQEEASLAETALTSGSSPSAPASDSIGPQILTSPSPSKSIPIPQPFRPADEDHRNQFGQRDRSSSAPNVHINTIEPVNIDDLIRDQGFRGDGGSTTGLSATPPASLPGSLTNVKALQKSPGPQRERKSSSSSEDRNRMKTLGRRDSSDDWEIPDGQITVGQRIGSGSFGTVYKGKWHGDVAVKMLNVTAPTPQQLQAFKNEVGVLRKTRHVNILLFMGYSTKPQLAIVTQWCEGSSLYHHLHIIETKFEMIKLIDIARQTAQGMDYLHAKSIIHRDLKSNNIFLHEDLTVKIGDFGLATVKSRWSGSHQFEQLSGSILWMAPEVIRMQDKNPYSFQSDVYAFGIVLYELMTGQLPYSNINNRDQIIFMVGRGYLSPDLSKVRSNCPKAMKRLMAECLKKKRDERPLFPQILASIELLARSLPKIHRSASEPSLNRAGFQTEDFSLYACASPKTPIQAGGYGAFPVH

[3] = molecular target: Bromodomain-containing protein 4 (Homo sapiens) (UniProt O60885); experiment: BRD4 SGC Tm panel (DSF); settings: for ΔTm: Compound concentration 10.0 uM
[4] = molecular target: Dual specificity protein kinase CLK3 (Homo sapiens) (UniProt P49761); experiment: CLK3 SGC Tm panel (DSF); settings: for ΔTm: Compound concentration 10.0 uM
[5] = molecular target: Casein kinase I isoform epsilon (Homo sapiens) (UniProt P49674); experiment: CSNK1E SGC Tm panel (DSF); settings: for ΔTm: Compound concentration 10.0 uM
Sequence of Casein kinase I isoform epsilon (Homo sapiens) (P49674 whole entry, looked up, canonical isoform): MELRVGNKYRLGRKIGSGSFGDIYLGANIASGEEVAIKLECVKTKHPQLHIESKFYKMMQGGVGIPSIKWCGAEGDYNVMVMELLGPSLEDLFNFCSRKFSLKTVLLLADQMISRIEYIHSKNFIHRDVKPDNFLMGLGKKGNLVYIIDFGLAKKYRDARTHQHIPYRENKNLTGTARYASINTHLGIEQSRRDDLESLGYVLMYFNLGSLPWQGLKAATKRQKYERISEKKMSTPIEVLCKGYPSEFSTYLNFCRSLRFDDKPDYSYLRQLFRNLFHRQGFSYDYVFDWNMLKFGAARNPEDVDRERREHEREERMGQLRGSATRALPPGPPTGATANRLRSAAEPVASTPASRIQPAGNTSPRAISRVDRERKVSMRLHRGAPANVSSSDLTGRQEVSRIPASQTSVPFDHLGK

[6] = molecular target: Casein kinase II subunit alpha (Homo sapiens) (UniProt P68400); experiment: CSNK2A1 SGC Tm panel (DSF); settings: for ΔTm: Compound concentration 10.0 uM
Sequence of Casein kinase II subunit alpha (Homo sapiens) (P68400 whole entry, looked up): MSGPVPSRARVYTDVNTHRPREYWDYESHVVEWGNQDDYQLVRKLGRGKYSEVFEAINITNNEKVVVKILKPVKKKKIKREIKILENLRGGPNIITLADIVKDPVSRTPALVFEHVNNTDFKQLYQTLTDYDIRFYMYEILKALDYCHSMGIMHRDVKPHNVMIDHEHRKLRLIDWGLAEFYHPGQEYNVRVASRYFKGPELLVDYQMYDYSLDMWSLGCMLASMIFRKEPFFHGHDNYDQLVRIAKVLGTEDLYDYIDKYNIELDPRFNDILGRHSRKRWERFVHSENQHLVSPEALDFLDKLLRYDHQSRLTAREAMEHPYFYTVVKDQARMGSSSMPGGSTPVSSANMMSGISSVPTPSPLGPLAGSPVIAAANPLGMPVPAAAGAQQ

[7] = molecular target: Ephrin type-A receptor 4 (Homo sapiens) (UniProt P54764); experiment: EPHA4 SGC Tm panel (DSF); settings: for ΔTm: Compound concentration 10.0 uM
[8] = molecular target: Ephrin type-A receptor 7 (Homo sapiens) (UniProt Q15375); experiment: EPHA7 SGC Tm panel (DSF); settings: for ΔTm: Compound concentration 10.0 uM
Sequence of Ephrin type-A receptor 7 (Homo sapiens) (Q15375 28-998 limits assumed): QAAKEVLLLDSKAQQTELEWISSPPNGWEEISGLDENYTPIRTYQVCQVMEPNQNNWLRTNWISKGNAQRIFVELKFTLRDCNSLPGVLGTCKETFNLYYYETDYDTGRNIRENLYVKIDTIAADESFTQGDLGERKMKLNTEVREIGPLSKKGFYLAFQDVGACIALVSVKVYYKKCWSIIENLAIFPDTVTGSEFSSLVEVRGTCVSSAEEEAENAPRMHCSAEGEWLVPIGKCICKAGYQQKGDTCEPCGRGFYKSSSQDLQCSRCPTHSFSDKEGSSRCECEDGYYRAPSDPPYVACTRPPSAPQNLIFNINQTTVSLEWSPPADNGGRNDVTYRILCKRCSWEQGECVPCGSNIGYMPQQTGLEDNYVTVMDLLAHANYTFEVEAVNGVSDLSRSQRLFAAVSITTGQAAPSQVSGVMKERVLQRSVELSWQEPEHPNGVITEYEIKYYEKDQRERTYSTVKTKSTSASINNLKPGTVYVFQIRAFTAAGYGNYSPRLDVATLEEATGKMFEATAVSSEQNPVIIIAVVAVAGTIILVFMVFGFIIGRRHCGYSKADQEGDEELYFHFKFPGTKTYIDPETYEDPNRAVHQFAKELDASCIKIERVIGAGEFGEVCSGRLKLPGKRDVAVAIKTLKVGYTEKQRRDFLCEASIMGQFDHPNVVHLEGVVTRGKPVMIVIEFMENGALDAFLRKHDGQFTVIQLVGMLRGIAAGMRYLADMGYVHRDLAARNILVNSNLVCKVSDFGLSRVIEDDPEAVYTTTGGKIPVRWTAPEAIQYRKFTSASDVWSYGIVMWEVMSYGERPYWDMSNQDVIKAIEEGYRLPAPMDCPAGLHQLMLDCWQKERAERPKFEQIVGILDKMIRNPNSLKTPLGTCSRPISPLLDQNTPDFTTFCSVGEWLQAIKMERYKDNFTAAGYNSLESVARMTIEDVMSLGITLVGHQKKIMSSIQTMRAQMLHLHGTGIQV

[9] = molecular target: Dual specificity mitogen-activated protein kinase kinase 1 (Homo sapiens) (UniProt Q02750); experiment: MAP2K1 SGC Tm panel (DSF); settings: for ΔTm: Compound concentration 10.0 uM
Sequence of Dual specificity mitogen-activated protein kinase kinase 1 (Homo sapiens) (Q02750 whole entry): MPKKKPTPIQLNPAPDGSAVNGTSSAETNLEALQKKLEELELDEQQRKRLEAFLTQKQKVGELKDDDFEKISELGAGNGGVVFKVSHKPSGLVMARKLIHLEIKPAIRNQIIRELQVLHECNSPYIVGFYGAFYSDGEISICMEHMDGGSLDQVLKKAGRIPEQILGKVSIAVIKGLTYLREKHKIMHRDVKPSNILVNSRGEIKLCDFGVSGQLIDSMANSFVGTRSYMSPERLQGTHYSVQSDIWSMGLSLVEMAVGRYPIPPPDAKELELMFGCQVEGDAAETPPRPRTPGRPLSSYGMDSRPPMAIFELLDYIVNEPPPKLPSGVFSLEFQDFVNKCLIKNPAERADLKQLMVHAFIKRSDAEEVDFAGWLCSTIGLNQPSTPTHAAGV

[10] = molecular target: Serine/threonine-protein kinase OSR1 (Homo sapiens) (UniProt O95747); experiment: OSR1 SGC Tm panel (DSF); settings: for ΔTm: Compound concentration 10.0 uM
Sequence of Serine/threonine-protein kinase OSR1 (Homo sapiens) (O95747 2-527 limits assumed): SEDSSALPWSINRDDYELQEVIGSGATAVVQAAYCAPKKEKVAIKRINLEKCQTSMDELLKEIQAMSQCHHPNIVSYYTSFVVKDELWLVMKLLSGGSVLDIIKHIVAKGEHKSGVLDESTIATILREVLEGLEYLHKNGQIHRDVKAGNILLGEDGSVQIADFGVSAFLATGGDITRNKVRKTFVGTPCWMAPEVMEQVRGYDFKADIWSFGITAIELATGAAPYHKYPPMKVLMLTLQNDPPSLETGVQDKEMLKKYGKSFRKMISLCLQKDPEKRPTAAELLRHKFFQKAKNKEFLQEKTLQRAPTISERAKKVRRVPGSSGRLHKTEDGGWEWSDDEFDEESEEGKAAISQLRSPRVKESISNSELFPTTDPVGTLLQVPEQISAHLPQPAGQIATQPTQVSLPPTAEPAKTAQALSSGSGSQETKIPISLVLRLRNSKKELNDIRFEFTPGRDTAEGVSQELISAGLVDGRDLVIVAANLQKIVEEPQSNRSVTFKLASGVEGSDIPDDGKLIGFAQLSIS

[11] = molecular target: Proto-oncogene tyrosine-protein kinase Src (Homo sapiens) (UniProt P12931); experiment: SRC SGC Tm panel (DSF); settings: for ΔTm: Compound concentration 10.0 uM
[12] = molecular target: T1, Serine/threonine-protein kinase ULK1 (Homo sapiens) (UniProt O75385); experiment: ULK1 SGC Tm panel (DSF); settings: for ΔTm: Compound concentration 10.0 uM
T1 sequence (whole entry): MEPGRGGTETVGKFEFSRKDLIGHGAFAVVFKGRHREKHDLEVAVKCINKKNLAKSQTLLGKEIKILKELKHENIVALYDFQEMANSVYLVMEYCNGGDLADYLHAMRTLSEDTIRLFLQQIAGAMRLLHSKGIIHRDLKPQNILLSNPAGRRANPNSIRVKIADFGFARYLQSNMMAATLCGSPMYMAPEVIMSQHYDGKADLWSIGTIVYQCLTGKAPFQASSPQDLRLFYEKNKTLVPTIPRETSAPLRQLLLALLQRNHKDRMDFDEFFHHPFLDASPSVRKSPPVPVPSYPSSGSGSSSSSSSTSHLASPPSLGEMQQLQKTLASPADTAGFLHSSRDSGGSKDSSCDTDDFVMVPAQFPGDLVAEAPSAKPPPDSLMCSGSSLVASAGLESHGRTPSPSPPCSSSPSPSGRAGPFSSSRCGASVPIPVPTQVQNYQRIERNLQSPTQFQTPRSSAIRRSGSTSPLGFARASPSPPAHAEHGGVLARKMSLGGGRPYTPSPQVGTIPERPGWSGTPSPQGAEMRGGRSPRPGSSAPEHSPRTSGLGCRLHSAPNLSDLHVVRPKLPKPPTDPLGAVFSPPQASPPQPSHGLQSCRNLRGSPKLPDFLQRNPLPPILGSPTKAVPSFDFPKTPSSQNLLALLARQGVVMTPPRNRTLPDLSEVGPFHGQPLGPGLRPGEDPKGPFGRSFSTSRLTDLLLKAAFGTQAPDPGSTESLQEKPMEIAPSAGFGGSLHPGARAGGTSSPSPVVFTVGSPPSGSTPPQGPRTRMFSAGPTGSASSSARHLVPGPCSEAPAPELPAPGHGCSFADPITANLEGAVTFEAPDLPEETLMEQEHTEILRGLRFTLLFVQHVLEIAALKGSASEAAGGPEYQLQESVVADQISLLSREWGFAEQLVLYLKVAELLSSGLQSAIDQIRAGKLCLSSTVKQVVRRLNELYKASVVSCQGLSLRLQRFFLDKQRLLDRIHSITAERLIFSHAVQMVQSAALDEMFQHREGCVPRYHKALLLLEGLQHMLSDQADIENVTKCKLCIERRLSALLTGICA

[13] = molecular target: T2, 5-hydroxytryptamine receptor 1A (Homo sapiens) (UniProt P08908); settings: Compound concentration 10.0 uM
T2 sequence (whole entry): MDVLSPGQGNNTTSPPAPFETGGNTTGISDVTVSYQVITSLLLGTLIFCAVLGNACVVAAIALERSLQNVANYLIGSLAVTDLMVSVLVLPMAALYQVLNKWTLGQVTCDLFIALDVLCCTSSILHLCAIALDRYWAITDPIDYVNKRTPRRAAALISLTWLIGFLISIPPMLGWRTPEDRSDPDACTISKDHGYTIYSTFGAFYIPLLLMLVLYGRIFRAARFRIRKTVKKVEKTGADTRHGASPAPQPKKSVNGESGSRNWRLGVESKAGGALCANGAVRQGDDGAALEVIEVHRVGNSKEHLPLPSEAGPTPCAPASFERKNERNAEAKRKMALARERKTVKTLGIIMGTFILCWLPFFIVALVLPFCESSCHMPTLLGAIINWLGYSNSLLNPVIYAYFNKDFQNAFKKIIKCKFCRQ

[14] = molecular target: T3, 5-hydroxytryptamine receptor 2C (Homo sapiens) (UniProt P28335); settings: Compound concentration 10.0 uM
T3 sequence (whole entry): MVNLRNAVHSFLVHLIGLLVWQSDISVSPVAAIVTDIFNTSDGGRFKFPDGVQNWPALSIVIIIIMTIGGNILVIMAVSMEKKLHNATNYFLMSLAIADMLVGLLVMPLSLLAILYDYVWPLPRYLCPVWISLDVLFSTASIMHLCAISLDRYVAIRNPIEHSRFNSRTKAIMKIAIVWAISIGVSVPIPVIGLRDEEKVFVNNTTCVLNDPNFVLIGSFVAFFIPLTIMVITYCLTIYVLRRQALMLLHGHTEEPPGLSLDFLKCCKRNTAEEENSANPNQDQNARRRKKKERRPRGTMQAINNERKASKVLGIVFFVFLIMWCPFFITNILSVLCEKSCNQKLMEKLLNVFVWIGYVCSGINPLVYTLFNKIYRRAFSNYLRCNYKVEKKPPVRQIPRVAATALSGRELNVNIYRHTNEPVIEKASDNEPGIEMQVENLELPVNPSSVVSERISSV

[15] = molecular target: D(3) dopamine receptor (Homo sapiens) (UniProt P35462); settings: Compound concentration 10.0 uM
Sequence of D(3) dopamine receptor (Homo sapiens) (P35462 whole entry): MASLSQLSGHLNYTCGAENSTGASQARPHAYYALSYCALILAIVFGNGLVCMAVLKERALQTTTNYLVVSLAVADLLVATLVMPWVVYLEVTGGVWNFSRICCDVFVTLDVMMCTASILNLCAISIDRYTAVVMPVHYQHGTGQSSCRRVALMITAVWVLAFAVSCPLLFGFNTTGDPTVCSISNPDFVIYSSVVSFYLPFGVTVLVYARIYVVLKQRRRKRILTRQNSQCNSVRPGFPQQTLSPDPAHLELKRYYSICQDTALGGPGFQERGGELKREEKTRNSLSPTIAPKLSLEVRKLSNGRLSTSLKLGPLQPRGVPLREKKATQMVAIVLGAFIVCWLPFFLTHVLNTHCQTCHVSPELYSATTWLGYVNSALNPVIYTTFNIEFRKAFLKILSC

[16] = molecular target: Sodium-dependent dopamine transporter (Homo sapiens) (UniProt Q01959); settings: Compound concentration 10.0 uM
Sequence of Sodium-dependent dopamine transporter (Homo sapiens) (Q01959 whole entry): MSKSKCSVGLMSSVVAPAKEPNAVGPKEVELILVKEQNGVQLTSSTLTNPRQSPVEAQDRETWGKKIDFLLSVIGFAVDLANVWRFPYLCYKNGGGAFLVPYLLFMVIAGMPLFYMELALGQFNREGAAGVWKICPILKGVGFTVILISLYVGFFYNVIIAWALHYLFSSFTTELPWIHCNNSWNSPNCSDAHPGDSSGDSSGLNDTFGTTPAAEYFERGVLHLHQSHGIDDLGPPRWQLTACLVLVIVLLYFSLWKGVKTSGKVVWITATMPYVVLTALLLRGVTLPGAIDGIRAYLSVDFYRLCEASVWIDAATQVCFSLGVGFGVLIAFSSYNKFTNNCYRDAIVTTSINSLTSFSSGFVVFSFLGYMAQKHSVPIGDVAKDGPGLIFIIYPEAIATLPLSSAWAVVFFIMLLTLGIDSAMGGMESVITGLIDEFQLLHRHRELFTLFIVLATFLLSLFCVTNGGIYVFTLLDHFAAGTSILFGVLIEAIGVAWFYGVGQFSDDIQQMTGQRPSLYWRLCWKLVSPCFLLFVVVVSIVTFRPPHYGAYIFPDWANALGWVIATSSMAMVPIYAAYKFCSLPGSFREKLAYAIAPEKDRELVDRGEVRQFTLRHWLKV

[17] = molecular target: Beta-1 adrenergic receptor (Homo sapiens) (UniProt P08588); settings: Compound concentration 10.0 uM
Sequence of Beta-1 adrenergic receptor (Homo sapiens) (P08588 whole entry, looked up): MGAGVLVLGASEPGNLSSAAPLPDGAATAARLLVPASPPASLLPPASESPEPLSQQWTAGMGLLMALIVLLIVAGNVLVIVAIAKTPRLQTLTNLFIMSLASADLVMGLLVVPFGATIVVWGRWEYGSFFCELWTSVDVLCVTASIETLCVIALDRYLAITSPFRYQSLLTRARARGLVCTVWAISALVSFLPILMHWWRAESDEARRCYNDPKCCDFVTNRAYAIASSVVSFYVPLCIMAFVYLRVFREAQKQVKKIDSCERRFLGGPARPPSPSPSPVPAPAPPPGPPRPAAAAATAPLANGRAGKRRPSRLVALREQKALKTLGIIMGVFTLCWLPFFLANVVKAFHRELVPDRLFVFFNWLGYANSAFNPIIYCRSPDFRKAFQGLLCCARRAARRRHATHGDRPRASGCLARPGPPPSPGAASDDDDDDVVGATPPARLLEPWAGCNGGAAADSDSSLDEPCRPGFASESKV

Row | Structure (SMILES) | EC50 [1] | delta Tm Staurosporine positive control [2] | ΔTm [2] | delta Tm Staurosporine positive control [3] | ΔTm [3] | delta Tm Staurosporine positive control [4] | ΔTm [4] | delta Tm Staurosporine positive control [5] | ΔTm [5] | delta Tm Staurosporine positive control [6] | ΔTm [6] | delta Tm Staurosporine positive control [7] | ΔTm [7] | delta Tm Staurosporine positive control [8] | ΔTm [8] | delta Tm Staurosporine positive control [9] | ΔTm [9] | delta Tm Staurosporine positive control [10] | ΔTm [10] | delta Tm Staurosporine positive control [11] | further results
1 | CCC[C@H]1CNCc2c1[nH]c(=O)c(C#N)c2N1CCC2(CC1)CC2 | 0.995 µM (active) | 1.08 | -0.134 | 2.04 | 0.19 | 5.3 | -0.402 | 3.12 | -0.118 | 4.47 | -0.228 | 6.68 | -0.324 | 12.1 | -0.592 | 6.3 | -0.252 | 8.41 | -0.0871 | 7.39 | ΔTm [11]: -0.143; delta Tm Staurosporine positive control [12]: 14; ΔTm [12]: 0.0473; inhibition [13]: 5.13%; inhibition [14]: 8.81%; inhibition [15]: 12.3%; inhibition [16]: 3.42%; inhibition [17]: -8.08%
2 | CCC[C@@H]1CNCc2c1[nH]c(=O)c(C#N)c2N1CCC2(CC1)CC2 | > 10 µM (not active) | 1.08 | -0.0823 | 2.04 | 0.857 | 5.3 | -0.379 | 3.12 | -0.0146 | 4.47 | -0.184 | 6.68 | -0.295 | 12.1 | -0.583 | 6.3 | -0.203 | 8.41 | 0.204 | 7.39 | ΔTm [11]: -0.0953; delta Tm Staurosporine positive control [12]: 14; ΔTm [12]: 0.234; inhibition [13]: 8.63%; inhibition [14]: 9.88%; inhibition [15]: -9.68%; inhibition [16]: 7.47%; inhibition [17]: 5.97%
